# Entries after “also recorded” stand apart in the source; their conditions may differ.
# Assays:
# Format in all cases: cell-based
# SLC1A4 = molecular target: T1, SLC1A4 (Homo sapiens, UniProt P43007); test: TEVC block of anion leak conductance in oocytes; details: SLC1A4; compared with ligands of refs 43, 65
# T1 construct: expressed in transfected cells; host or cells: Xenopus laevis oocytes (cRNA injection)
# T1 sequence (P43007 1-532): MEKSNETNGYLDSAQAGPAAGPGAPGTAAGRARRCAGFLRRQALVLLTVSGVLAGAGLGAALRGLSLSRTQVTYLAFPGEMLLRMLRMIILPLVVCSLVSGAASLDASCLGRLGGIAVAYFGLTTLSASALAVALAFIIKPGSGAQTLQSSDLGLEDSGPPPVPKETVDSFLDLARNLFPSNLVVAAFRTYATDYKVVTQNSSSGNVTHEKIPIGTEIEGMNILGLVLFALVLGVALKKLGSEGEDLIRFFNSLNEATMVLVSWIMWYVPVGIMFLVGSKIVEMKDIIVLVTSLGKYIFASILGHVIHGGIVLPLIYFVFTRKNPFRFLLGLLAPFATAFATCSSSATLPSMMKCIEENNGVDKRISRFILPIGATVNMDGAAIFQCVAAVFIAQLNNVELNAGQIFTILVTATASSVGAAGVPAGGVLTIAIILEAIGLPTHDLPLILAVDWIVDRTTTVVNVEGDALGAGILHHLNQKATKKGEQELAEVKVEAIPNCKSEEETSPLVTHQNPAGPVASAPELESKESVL
# From the text: (§1) The currents induced by substrates and blocked by hydroxyproline analogs shared a reversal potential shown in the current/voltage relationship consistent with the conductance originating from the same ion pore (Figure 3, inset). […] The observed dose–response relationships are independent of competing substrates, and thus provide a direct measure of the equilibrium inhibition constant (Ki). Each synthetic hydroxyproline analog was functionally assessed for its capacity to inhibit SLC1A4 and SLC1A5 leak currents with affinities reported in Table 1 as determined or approximated Ki.
# (§2) Two-electrode voltage clamp (TEVC) transporter currents were recorded with a GeneClamp 500 amplifier and Digidata 1320A analog–digital interface (Molecular Devices, San Jose, CA, USA). Electrodes (0.2–1.0 MΩ) were filled with 3M KCl and the recording chamber was grounded with an agar bridge. Data were acquired with Axograph (v1.7.6) and LabChart (v7) and analyzed with Kaleidagraph software (v4.1) (Synergy, Reading, PA, USA). Uncoupled anion currents associated with the transport of substrate and block of SLC1A4 or SLC1A5 mediated leak conductance were recorded in the presence of Ringer with 50% substitution of NaCl by NaSCN to amplify the non-transported anion conductance.
# (§3) Figure 3 AHPCs block a leak current in SLC1A4 and SLC1A5. […] Inset (A): The current and voltage relationship for SLC1A4 currents activated by Ala or blocked by 14b are determined by subtracting voltage jumps in buffer.
# mSLC1A5 = molecular target: T2, mSLC1A5 (Mus musculus, UniProt P51912); test: TEVC block of anion leak conductance in oocytes; details: SLC1A5; compared with ligands of refs 43, 65
# T2 construct: expressed in transfected cells; host or cells: Xenopus laevis oocytes (cRNA injection)
# T2 sequence (P51912 1-553): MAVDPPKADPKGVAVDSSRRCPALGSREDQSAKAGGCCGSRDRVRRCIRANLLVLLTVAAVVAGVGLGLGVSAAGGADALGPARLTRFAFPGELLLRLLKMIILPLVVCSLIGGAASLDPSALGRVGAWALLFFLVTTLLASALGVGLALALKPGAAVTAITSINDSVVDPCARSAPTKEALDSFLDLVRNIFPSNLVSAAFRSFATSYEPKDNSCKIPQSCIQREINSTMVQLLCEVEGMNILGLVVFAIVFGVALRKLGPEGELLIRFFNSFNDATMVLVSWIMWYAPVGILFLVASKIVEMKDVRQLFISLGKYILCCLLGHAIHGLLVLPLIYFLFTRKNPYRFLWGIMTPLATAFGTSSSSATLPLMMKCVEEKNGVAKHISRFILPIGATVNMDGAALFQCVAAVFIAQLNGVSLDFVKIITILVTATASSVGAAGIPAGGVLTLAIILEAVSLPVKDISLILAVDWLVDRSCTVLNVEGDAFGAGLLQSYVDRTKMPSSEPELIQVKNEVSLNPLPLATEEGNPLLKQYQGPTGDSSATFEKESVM
# From the text: as §1, §2, §3
# SLC38A2 (ATA2) = molecular target: T3, SLC38A2 (ATA2) (Homo sapiens, UniProt Q96QD8); test: TEVC electrogenic coupled currents in oocytes; details: 100 µM L-alanine, 3 µM BPOHP
# T3 construct: expressed in transfected cells; host or cells: Xenopus laevis oocytes (cRNA injection)
# T3 sequence (Q96QD8 1-506): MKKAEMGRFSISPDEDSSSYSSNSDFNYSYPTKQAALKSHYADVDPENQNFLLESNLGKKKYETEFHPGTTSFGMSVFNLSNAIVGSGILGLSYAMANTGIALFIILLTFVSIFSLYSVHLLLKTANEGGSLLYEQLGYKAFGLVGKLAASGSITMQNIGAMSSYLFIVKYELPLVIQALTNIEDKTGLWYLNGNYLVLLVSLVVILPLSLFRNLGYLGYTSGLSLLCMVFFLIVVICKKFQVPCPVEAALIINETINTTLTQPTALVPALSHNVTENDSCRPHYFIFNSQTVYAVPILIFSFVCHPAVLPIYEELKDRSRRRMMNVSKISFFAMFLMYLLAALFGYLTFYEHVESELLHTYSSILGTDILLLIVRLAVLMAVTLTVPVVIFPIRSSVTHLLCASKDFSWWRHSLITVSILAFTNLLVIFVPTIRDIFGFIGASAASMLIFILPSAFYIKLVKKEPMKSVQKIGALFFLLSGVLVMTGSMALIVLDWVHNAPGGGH
# Experimental: Additionally, 4-HP applied at 1 mM was used to assess activity at the glutamate transporters SLC1A3 or SLC1A1.
# BPOHP activity was evaluated against the glutamate transporters paralogs within the SLC1A gene family (SLC1A 1–3) as well as at neutral amino acid transporters that share common ligand substrates with the SLC1 family including SLC38A1,2, and 4 (ATA1, ATA2, ATA3) and heteromeric transporters SLC7A10+SLC3A2 (asc-1/4f2).
# Uptake was halted by washing 3 times with 4 °C ND96 buffer. Oocytes were then lysed in 0.1% Triton X-100, and radioactivity was counted via liquid scintillation. Dose response curves were generated by fitting fractional inhibition (I) to the expression I = Imax × [inhibitor]/([inhibitor] + IC50).
# Two-electrode voltage clamp (TEVC) transporter currents were recorded with a GeneClamp 500 amplifier and Digidata 1320A analog–digital interface (Molecular Devices, San Jose, CA, USA). […] Data were acquired with Axograph (v1.7.6) and LabChart (v7) and analyzed with Kaleidagraph software (v4.1) (Synergy, Reading, PA, USA). Uncoupled anion currents associated with the transport of substrate and block of SLC1A4 or SLC1A5 mediated leak conductance were recorded in the presence of Ringer with 50% substitution of NaCl by NaSCN to amplify the non-transported anion conductance. […]
smiles,measurement,setting,value
O=C(O)[C@H]1NC[C@@H](OCc2ccc(-c3ccccc3)cc2)[C@@H]1O [14e],fold improvement in affinity over ligands previously reported,SLC1A4,7–25 fold
same,fold improvement in affinity over ligands previously reported,mSLC1A5,7–25 fold
same,block of L-alanine current,SLC38A2 (ATA2),no effect; also recorded: no discernible block; also recorded: no inhibition was detected

# Reference: PMC11123841, “Discovery and Synthesis of Hydroxy-L-Proline Blockers of the Neutral Amino Acid Transporters SLC1A4 (ASCT1) and SLC1A5 (ASCT2)” (Molecules, 2024)
